Measurements: PubChem BioAssay AID1963871 (Molecular Pharmacology Branch, DTP, NCI, 2024)

Tested on: KRAS-mutant PDC multicell tumor spheroid viability
Assay: Anticancer human tumor 521955-158-R2-J5-PDC patient-derived pancreatic carcinoma cell line growth inhibition [KRAS2]
Conditions: for IC50: curve of first compound; for viability, T/C: stronger effect = lower value; active = viability on the fitted dose curve at most 10% of control; inactive = the rest
Excerpt: Multicellular complex tumor spheroid response to RAS pathway inhibitors in combination with a targeted agents in patient-derived cell lines with oncogenic KRAS variants from multiple cancer types
A high-throughput screen of multi-cell type tumor spheroids was designed to identify active combinations of targeted small molecules and KRAS pathway inhibitors. Complex spheroids include a stromal component modeled by human endothelial cells (HUVEC) and fibroblasts modeled by human mesenchymal stem cells (MSCs). The concentration ranges selected for each drug and investigational agent were based upon clinically achievable concentrations if the clinical Cmax of the agent was known.
Compounds. The drugs and investigational agents: BI-3406 (NSC825286), BAY-293 (NSC824723), batoprotafib (TNO155; NSC825523), sotorasib (AMG 510; NSC818433), MRTX1257 (NSC819558), elimusertib (BAY 1895344; NSC800525), molibresib (GSK525762; NSC774829), temuterkib (LY3214996; NSC803410), venetoclax (NSC766270), alisertib (NSC759677), olaparib (NSC753686), talazoparib (NSC767125), erdafitinib (NSC781556), ipatasertib (NSC767898), cabozantinib (NSC761068), nintedanib (NSC756659), abemaciclib (NSC768073), docetaxel (NSC628503), trametinib (NSC758246), and sapanisertib (NSC764658) were obtained from the National Cancer Institute (NCI) Developmental Therapeutics Program Chemical Repository. The FDA-approved anticancer drug set is available from the Developmental Therapeutics Program. […] The stock solutions were prepared in dimethyl sulfoxide (DMSO, Sigma-Aldrich, St. Louis, MO, cat. D2650) at 800-fold the tested concentration and stored at -70 degrees C prior to their use. All drugs and investigational agents were tested over a range starting from a high concentration at or near the clinical Cmax and decreasing in half-log increments. If the clinical Cmax for an agent had not been determined, the highest concentration tested was 10 microM.
Cell Culture. All cells were maintained in an incubator at 37 degrees C and 5% CO2 with 95% humidity. The PDC lines were cultured according to standard operating procedures established by the NCI PDMR (https://pdmr.cancer.gov/sops/default.htm). Briefly, all PDCs were thawed and cultured in Matrigel-coated flasks prepared with a working solution of 1X Ham's F-12 nutrient mix, without supplementation (Invitrogen, Waltham, MA, cat. 11765054), 100 U/mL penicillin-streptomycin (Invitrogen, cat. 15140122), and 2.5% Matrigel (Corning Inc., Corning, NY, cat. 354248) for the first three passages. All PDCs were cultured in complete DMEM/F-12 media containing advanced DMEM/F-12 (Invitrogen, cat. 12634028), 4.9% defined fetal bovine serum, heat inactivated (HyClone Laboratories Inc., Logan, UT, cat. SH30070.03HI), 389 ng/mL hydrocortisone (Sigma-Aldrich, cat. H4001), 9.7 ng/mL human EGF recombinant protein (Invitrogen, cat. PHG0313), 23.4 microg/mL adenine (Sigma-Aldrich, cat. A2786), 97.3 U/mL penicillin-streptomycin (Invitrogen, cat. 15140122), 1.9 mM L-glutamine (Invitrogen, cat. 25030081), and 9.7 microM Y-27632 dihydrochloride (Tocris Bioscience, Bristol, United Kingdom, cat. 1254). The PDCs were cultured in complete DMEM/F12 media without 9.7 microM Y-27632 dihydrochloride for at least two passages prior to the screen. The established cell line HOP-62 was cultured in RPMI 1640 medium, HEPES (Invitrogen, cat. 22400105) with 10% defined fetal bovine serum (HyClone Laboratories Inc., cat. SH30070.03) and 2 mM L-glutamine (Invitrogen, cat. 25030081). The pooled donor HUVEC were cultured in endothelial cell growth medium 2 (PromoCell, Heidelberg, Germany, cat. C-22011) and the hMSC were cultured in mesenchymal stem cell growth medium 2 (PromoCell, cat. C-28009). For all experiments, HUVEC and hMSC were used at passages </=5, while the malignant cell lines were used at passages </=15. […]

[1] = second compound 0.1 µM, first compound 0.00316 µM
[2] = second compound 0.1 µM, first compound 0.01 µM
[3] = second compound 0.1 µM, first compound 0.0316 µM
[4] = second compound 0.316 µM, first compound 0.00316 µM
[5] = second compound 0.316 µM, first compound 0.01 µM
[6] = second compound 0.316 µM, first compound 0.0316 µM
[7] = second compound 1 µM, first compound 0.00316 µM
[8] = second compound 1 µM, first compound 0.01 µM
[9] = second compound 1 µM, first compound 0.0316 µM
[10] = second compound 3.16 µM, first compound 0.00316 µM
[11] = second compound 3.16 µM, first compound 0.01 µM
[12] = second compound 3.16 µM, first compound 0.0316 µM
[13] = second compound 10 µM, first compound 0.00316 µM
[14] = second compound 10 µM, first compound 0.01 µM
[15] = second compound 10 µM, first compound 0.0316 µM
[16] = second compound 0.1 µM, first compound 0.1 µM
[17] = second compound 0.1 µM, first compound 0.316 µM
[18] = second compound 0.1 µM, first compound 1 µM
[19] = second compound 0.316 µM, first compound 0.1 µM
[20] = second compound 0.316 µM, first compound 0.316 µM
[21] = second compound 0.316 µM, first compound 1 µM
[22] = second compound 1 µM, first compound 0.1 µM
[23] = second compound 1 µM, first compound 0.316 µM
[24] = second compound 1 µM, first compound 1 µM
[25] = second compound 3.16 µM, first compound 0.1 µM
[26] = second compound 3.16 µM, first compound 0.316 µM
[27] = second compound 3.16 µM, first compound 1 µM
[28] = second compound 10 µM, first compound 0.1 µM
[29] = second compound 10 µM, first compound 0.316 µM
[30] = second compound 10 µM, first compound 1 µM
[31] = second compound 0.1 µM, first compound 3.16 µM
[32] = second compound 0.1 µM, first compound 10 µM
[33] = second compound 0.316 µM, first compound 3.16 µM
[34] = second compound 0.316 µM, first compound 10 µM
[35] = second compound 1 µM, first compound 3.16 µM
[36] = second compound 1 µM, first compound 10 µM
[37] = second compound 3.16 µM, first compound 3.16 µM
[38] = second compound 3.16 µM, first compound 10 µM
[39] = second compound 10 µM, first compound 3.16 µM
[40] = second compound 10 µM, first compound 10 µM
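Also: viability read after seven days of drug exposure.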

CC(=O)Nc1cccc(-n2c(=O)n(C3CC3)c(=O)c3c(Nc4ccc(I)cc4F)n(C)c(=O)c(C)c32)c1 + COc1cc2nc(C)nc(NC(C)c3cc(N)cc(C(F)(F)F)c3)c2cc1OC1CCOC1
< 0.1 nM: IC50 (second compound 10 µM)
active: viability, T/C [6] 8.98% | viability, T/C [12] 5.44% | viability, T/C [14] 3.5% | viability, T/C [15] 1.26%
inactive: viability, T/C (second compound 0.1 µM, first compound 0.0001 µM) 68.5% | viability, T/C (second compound 0.1 µM, first compound 0.000316 µM) 48% | viability, T/C (second compound 0.1 µM, first compound 0.001 µM) 26.1% | viability, T/C [1] 26.2% | viability, T/C [2] 16.3% | viability, T/C [3] 12.7% | viability, T/C (second compound 0.316 µM, first compound 0.0001 µM) 58.5% | viability, T/C (second compound 0.316 µM, first compound 0.000316 µM) 46.4% | viability, T/C (second compound 0.316 µM, first compound 0.001 µM) 30.6% | viability, T/C [4] 24.8% | viability, T/C [5] 16.7% | viability, T/C (second compound 1 µM, first compound 0.0001 µM) 65.2% | viability, T/C (second compound 1 µM, first compound 0.000316 µM) 39.3% | viability, T/C (second compound 1 µM, first compound 0.001 µM) 31.4% | viability, T/C [7] 19.9% | viability, T/C [8] 18.1% | viability, T/C [9] 7.44% | viability, T/C (second compound 3.16 µM, first compound 0.0001 µM) 63.6% | viability, T/C (second compound 3.16 µM, first compound 0.000316 µM) 46.9% | viability, T/C (second compound 3.16 µM, first compound 0.001 µM) 33.5% | viability, T/C [10] 21.8% | viability, T/C [11] 16.8% | viability, T/C (second compound 10 µM, first compound 0.0001 µM) 33% | viability, T/C (second compound 10 µM, first compound 0.000316 µM) 37.1% | viability, T/C (second compound 10 µM, first compound 0.001 µM) 26.8% | viability, T/C [13] 11.3%
0.209 nM: IC50 (second compound 0.316 µM)
0.215 nM: IC50 (second compound 1 µM)
0.26 nM: IC50 (second compound 0.1 µM) | IC50 (second compound 3.16 µM)

CCN1CCN(Cc2ccc(Nc3ncc(F)c(-c4cc(F)c5nc(C)n(C(C)C)c5c4)n3)nc2)CC1 + C=CC(=O)N1CCN(c2nc(=O)n(-c3c(C)ccnc3C(C)C)c3nc(-c4c(O)cccc4F)c(F)cc23)C(C)C1
inactive: viability, T/C [1] 113% | viability, T/C [2] 100% | viability, T/C [3] 110% | viability, T/C [16] 100% | viability, T/C [17] 122% | viability, T/C [18] 97.2% | viability, T/C [4] 114% | viability, T/C [5] 108% | viability, T/C [6] 91.1% | viability, T/C [19] 101% | viability, T/C [20] 117% | viability, T/C [21] 109% | viability, T/C [7] 112% | viability, T/C [8] 108% | viability, T/C [9] 94.5% | viability, T/C [22] 95.5% | viability, T/C [23] 113% | viability, T/C [24] 96.7% | viability, T/C [10] 89.2% | viability, T/C [11] 99.4% | viability, T/C [12] 91.8% | viability, T/C [25] 80.5% | viability, T/C [26] 88.4% | viability, T/C [27] 88.8% | viability, T/C [13] 81% | viability, T/C [14] 88.3% | viability, T/C [15] 89.4% | viability, T/C [28] 74.6% | viability, T/C [29] 66.7% | viability, T/C [30] 50.7%
> 1000 nM: IC50 (second compound 0.1 µM) | IC50 (second compound 0.316 µM) | IC50 (second compound 1 µM) | IC50 (second compound 3.16 µM) | IC50 (second compound 10 µM)

CC1OCC2(CCN(c3cnc(Sc4ccnc(N)c4Cl)c(N)n3)CC2)C1N (stereo not given) + CNCc1ccccc1-c1csc(C(C)Nc2nc(C)nc3cc(OC)c(OC)cc23)c1
inactive: viability, T/C [3] 86.5% | viability, T/C [16] 83.1% | viability, T/C [17] 85.6% | viability, T/C [18] 74.4% | viability, T/C [31] 67% | viability, T/C [32] 70.7% | viability, T/C [6] 90.2% | viability, T/C [19] 85.2% | viability, T/C [20] 68.5% | viability, T/C [21] 77.3% | viability, T/C [33] 75.4% | viability, T/C [34] 73.1% | viability, T/C [9] 90.6% | viability, T/C [22] 83.5% | viability, T/C [23] 76.8% | viability, T/C [24] 70% | viability, T/C [35] 68.4% | viability, T/C [36] 75%
> 10000 nM: IC50 (second compound 0.1 µM) | IC50 (second compound 0.316 µM) | IC50 (second compound 1 µM)
< 31.6 nM: IC50 (second compound 3.16 µM) | IC50 (second compound 10 µM)
active: viability, T/C [12] 0.27% | viability, T/C [25] 0.18% | viability, T/C [26] 0.19% | viability, T/C [27] 0.2% | viability, T/C [37] 0.36% | viability, T/C [38] 0.31% | viability, T/C [15] 0.15% | viability, T/C [28] 0.14% | viability, T/C [29] 0.15% | viability, T/C [30] 0.13% | viability, T/C [39] 0.14% | viability, T/C [40] 0.21%

COc1cc2nccc(Oc3ccc(NC(=O)C4(C(=O)Nc5ccc(F)cc5)CC4)cc3)c2cc1OC + COc1cc2nc(C)nc(NC(C)c3cc(N)cc(C(F)(F)F)c3)c2cc1OC1CCOC1
1470 nM: IC50 (second compound 10 µM)
7590 nM: IC50 (second compound 0.316 µM)
7430 nM: IC50 (second compound 0.1 µM)
5580 nM: IC50 (second compound 1 µM)
3270 nM: IC50 (second compound 3.16 µM)
inactive: viability, T/C [3] 93.7% | viability, T/C [16] 99.6% | viability, T/C [17] 88.6% | viability, T/C [18] 95.1% | viability, T/C [31] 85.6% | viability, T/C [32] 37.4% | viability, T/C [6] 99.7% | viability, T/C [19] 98.1% | viability, T/C [20] 88.6% | viability, T/C [21] 88.9% | viability, T/C [33] 83.6% | viability, T/C [34] 39.5% | viability, T/C [9] 89% | viability, T/C [22] 96.1% | viability, T/C [23] 96.6% | viability, T/C [24] 90.1% | viability, T/C [35] 72% | viability, T/C [36] 27.5% | viability, T/C [12] 100% | viability, T/C [25] 96.8% | viability, T/C [26] 101% | viability, T/C [27] 105% | viability, T/C [37] 51.2% | viability, T/C [15] 93.4% | viability, T/C [28] 73.2% | viability, T/C [29] 67% | viability, T/C [30] 74.8%
active: viability, T/C [38] 6.41% | viability, T/C [39] 0.78% | viability, T/C [40] 0.24%
